According to ChEMBL document CHEMBL1201862, “PubChem BioAssay data set” (2004):
Values joined by “and” are separate entries in the source; they are usually repeats but may differ in a detail not shown here. Identical values can stand only once. Active and inactive are the calls of the source.

Key:
Beta Lactamase = Beta Lactamase (Pseudomonas aeruginosa, UniProt Q932Y6); assay: BLA reporter interference, concentration series – BLA reporter cells, FRET fluorescence, artefact control for TLR9-MyD88 binding inhibitor project, dose response (AID 588341); format: cell-based;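 note: cell based assay in CHO-K1 cells stably expressing beta-lactamase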
Beta Lactamase, sequence (Q932Y6 whole entry, the tested form may be a part): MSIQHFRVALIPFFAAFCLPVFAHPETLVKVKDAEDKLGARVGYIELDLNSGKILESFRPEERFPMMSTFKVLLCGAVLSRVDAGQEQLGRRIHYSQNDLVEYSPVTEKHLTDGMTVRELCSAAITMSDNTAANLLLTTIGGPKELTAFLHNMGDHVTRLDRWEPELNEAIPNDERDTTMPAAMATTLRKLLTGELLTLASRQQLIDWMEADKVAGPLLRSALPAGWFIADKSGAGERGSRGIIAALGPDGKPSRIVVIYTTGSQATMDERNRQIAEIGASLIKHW

CHO = CHO cell viability loss, potency – luminescence, cytotoxicity control for TLR9-MyD88 binding inhibitor project, dose response (AID 588339); format: functional, cell-based, hamster; details: Cricetulus griseus;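 note: CHO cells stably coexpressing TLR9 and MyD88 fusions from primary screen; compound exposure lasted 48 hours before viability readout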
[1] = molecular target: T1, Endoribonuclease toxin MazF (Escherichia coli K-12, UniProt P0AE70); assay: substrate-only fluorescence increase artefacts – biochemical, single-stranded RNase substrate, counter-screen for MazEF activator project, dose response (AID 588502); format: functional
T1 sequence (P0AE70 whole entry): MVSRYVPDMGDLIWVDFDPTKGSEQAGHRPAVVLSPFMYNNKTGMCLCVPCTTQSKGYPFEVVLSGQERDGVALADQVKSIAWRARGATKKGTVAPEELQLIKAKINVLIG

[2] = molecular target: T1, Endoribonuclease toxin MazF; assay: activation of MazEF endoribonuclease cleavage – biochemical, fluorescence, single-stranded RNA substrate, uHTS hits, dose response (AID 588481); format: functional
[3] = A Cell Based Secondary Assay To Explore Cytotoxicity of Compounds that Sensitize Mycobacterium Tuberculosis to Beta-Lactam Antibiotics.; format: functional
[4] = molecular target: T2, Long-chain-fatty-acid--AMP ligase FadD28 (Mycobacterium tuberculosis, UniProt P9WQ59); assay: Fluorescence polarization aasay to screen for inhibitors that compete for the binding of FadD28 to a bisubstrate Measured in Biochemical System Using Plate Reader - 2147-01_Inhibitor_Dose_CherryPick_Activity.; format: functional, Mycobacterium tuberculosis H37Rv
T2 sequence (P9WQ59 whole entry): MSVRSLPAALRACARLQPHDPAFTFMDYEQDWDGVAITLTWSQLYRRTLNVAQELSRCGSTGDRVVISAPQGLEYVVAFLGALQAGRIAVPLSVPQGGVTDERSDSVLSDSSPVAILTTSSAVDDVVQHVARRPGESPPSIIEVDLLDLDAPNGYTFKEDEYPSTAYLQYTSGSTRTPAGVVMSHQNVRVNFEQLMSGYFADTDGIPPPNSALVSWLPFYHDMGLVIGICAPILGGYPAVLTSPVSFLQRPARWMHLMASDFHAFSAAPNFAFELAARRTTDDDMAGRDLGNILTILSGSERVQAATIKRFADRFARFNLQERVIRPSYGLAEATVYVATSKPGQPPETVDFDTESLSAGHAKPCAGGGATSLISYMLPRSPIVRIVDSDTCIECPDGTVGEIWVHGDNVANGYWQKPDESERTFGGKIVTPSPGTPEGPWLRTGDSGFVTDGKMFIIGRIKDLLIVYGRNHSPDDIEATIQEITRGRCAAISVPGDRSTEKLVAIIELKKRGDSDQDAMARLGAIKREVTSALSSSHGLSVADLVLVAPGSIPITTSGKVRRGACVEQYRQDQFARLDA

Escherichia coli = assay: microbe, parasite or virus in culture
[5] = tested on: Streptococcus sp. 'group A'; assay: Streptococcus pyogenes SK(-)GAS viability under kanamycin – luminescence, BacTiterGlo, confirmation, counter-screen for streptokinase expression inhibitor project, dose response (AID 1900); format: functional, organism-based
[6] = molecular target: Photoreceptor-specific nuclear receptor (Homo sapiens, UniProt Q9Y5X4); format: functional, cell-based;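 note: CHO-S cells with Gal4-NCOR and VP16-NR2E3 two-hybrid luciferase reporter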
Photoreceptor-specific nuclear receptor, sequence (Q9Y5X4 whole entry, the tested form may be a part): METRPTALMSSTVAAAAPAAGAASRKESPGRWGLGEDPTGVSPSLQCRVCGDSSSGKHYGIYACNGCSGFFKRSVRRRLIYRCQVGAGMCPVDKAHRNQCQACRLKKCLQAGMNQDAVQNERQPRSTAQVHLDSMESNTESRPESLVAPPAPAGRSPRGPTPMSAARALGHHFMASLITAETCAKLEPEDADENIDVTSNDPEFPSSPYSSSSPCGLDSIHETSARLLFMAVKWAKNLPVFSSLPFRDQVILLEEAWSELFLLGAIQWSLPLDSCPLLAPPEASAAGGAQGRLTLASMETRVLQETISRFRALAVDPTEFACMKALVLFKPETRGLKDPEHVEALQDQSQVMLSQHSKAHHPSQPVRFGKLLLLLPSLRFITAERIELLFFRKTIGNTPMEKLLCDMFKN

Streptococcus = assay: GAS UMAA2166 growth inhibition – luminescence, BacTiterGlo, counter-screen for streptokinase expression inhibitor project, dose response (AID 1915); format: functional, organism-based;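 note: potency for reduction of bacterial viability or growth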
Streptokinase A = molecular target: T3, Streptokinase A (Streptococcus pyogenes serotype M1, UniProt P10520); assay: viability-normalized secreted streptokinase activity reduction – plasminogen activation absorbance, OD405, dose response (AID 1914); format: functional, Streptococcus pyogenes M1 GAS;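 note: secreted streptokinase activity via plasminogen activation per viability signal from cell pellet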
T3 sequence (P10520 whole entry): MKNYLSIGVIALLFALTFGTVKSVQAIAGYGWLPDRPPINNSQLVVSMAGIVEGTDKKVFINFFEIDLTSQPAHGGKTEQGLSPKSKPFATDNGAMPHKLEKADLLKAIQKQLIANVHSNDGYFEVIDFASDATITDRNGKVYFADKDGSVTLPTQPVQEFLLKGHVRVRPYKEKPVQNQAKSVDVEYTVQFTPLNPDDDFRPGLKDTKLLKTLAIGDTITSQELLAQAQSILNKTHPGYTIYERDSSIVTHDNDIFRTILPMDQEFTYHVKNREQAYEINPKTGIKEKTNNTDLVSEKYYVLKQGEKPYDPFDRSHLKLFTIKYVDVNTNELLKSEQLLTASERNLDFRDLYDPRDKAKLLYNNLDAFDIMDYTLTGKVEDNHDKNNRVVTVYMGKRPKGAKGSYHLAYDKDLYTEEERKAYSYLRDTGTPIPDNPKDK

CAAX prenyl protease 2 = CAAX prenyl protease 2 (Homo sapiens, UniProt Q9Y256); assay: inhibition of Ras-converting CAAX protease Rce1 – biochemical, yeast membranes, quenched-peptide fluorescence, cherry-pick, dose response (AID 588849)
[7] = molecular target: Glycogen synthase kinase-3 alpha (Homo sapiens, UniProt P49840); assay: Inhibition of Human GSK-3 alpha Activity Measured in Biochemical System Using Microfluidics - 2063-06_Inhibitor_Dose_DryPowder_Activity. [Related pubchem assays (depositor defined):AID2709]
[8] = molecular target: Glycogen synthase kinase-3 beta (Homo sapiens, UniProt P49841); assay: Inhibition of Human GSK-3 beta Activity Measured in Biochemical System Using Microfluidics - 2063-05_Inhibitor_Dose_DryPowder_Activity. [Related pubchem assays (depositor defined):AID2709]
Glycogen synthase kinase-3 beta, sequence (P49841 whole entry): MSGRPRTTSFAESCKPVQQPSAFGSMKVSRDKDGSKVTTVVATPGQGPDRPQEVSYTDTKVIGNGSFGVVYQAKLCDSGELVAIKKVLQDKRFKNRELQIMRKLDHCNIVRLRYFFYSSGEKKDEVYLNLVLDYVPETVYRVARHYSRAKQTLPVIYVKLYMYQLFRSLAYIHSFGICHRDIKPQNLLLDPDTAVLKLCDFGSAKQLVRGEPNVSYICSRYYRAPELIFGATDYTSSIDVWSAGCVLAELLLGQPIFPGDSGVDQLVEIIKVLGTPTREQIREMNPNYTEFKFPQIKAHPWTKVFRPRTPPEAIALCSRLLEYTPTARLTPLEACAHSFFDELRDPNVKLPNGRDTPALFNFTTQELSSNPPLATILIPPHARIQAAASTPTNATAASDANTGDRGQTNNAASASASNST

Vero = assay: viability of Vero cells under compound – cytotoxicity control for flavivirus capping enzyme inhibitors (AID 588742); format: functional; details: Chlorocebus sabaeus
Genome polyprotein = Genome polyprotein (dengue virus type 2, UniProt P29990); assay: flavivirus cap methylation enzyme inhibition – biochemical, confirmation dose response, primary screen (AID 588689); format: functional
[9] = molecular target: T4, Microphthalmia-associated transcription factor (Homo sapiens, UniProt O75030); assay: reducers of TRPM1 reporter luminescence, concentration series – cell-based, SK-MEL-5, cherry-picked, set 3, MITF inhibitor project, dose response (AID 493073); format: functional;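 note: SK-MEL-5 melanoma cells with luciferase driven by the MITF target TRPM1 promoter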
T4 sequence (O75030 whole entry): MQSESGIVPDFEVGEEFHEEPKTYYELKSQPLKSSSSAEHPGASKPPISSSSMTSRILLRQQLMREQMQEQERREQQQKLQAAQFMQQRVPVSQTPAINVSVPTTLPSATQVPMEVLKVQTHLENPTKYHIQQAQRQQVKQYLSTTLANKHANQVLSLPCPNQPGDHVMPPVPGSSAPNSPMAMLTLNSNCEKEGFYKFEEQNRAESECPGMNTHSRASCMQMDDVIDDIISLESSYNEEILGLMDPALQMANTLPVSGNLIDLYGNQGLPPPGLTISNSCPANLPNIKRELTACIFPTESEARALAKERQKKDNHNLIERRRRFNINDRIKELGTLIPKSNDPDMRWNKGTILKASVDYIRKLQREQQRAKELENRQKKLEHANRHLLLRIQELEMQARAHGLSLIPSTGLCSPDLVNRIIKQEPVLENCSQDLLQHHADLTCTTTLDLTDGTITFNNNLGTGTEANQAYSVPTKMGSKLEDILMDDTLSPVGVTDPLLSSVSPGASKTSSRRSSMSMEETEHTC

A-375 [10] = assay: proliferation inhibition in MITF-low A375 cells – cell-based, cherry-pick samples, set 2, counter-screen for MITF modulator project, dose response (AID 540335); format: functional; details: Homo sapiens
A-375 [11] = assay: MITF: Counter assay: A375 proliferation Measured in Cell-Based System Using Plate Reader - 2084-03_Inhibitor_Dose_DryPowder_Activity. [Related pubchem assays (depositor defined):AID488944]; format: functional; details: Homo sapiens
DNA topoisomerase = DNA topoisomerase (Yersinia pestis, UniProt A0A2S9PM60); assay: Yersinia topoisomerase I cleavage product accumulation – biochemical, cherry-pick, dose response (AID 588525)
[12] = molecular target: Beta-2 adrenergic receptor (Homo sapiens, UniProt P07550); assay: ADRB2 activation measured by internalization – cell-based, FAP fluorogen, flow cytometry, cherry pick 1, dose response (AID 588763); format: functional
Beta-2 adrenergic receptor, sequence (P07550 whole entry): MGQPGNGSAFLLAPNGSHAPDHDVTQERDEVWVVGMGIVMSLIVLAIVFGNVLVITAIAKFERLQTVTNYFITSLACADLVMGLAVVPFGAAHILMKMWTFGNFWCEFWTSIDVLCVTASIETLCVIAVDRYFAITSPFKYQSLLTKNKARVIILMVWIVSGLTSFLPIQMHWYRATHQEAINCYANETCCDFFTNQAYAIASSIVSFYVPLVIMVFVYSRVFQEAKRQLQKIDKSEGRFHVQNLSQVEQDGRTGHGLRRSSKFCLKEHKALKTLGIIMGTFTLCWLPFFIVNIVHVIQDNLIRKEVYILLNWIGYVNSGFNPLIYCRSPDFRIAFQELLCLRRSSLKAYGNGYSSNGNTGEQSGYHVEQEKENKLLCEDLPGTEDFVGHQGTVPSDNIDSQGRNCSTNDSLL

[13] = molecular target: Dual specificity protein kinase CLK1 (Homo sapiens, UniProt P49759); assay: inhibition of human CLK1 activity – biochemical, cherry-picked samples, selectivity assay for Dyrk1A inhibitor project, dose response (AID 588811)
Dual specificity protein kinase CLK1, sequence (P49759 whole entry): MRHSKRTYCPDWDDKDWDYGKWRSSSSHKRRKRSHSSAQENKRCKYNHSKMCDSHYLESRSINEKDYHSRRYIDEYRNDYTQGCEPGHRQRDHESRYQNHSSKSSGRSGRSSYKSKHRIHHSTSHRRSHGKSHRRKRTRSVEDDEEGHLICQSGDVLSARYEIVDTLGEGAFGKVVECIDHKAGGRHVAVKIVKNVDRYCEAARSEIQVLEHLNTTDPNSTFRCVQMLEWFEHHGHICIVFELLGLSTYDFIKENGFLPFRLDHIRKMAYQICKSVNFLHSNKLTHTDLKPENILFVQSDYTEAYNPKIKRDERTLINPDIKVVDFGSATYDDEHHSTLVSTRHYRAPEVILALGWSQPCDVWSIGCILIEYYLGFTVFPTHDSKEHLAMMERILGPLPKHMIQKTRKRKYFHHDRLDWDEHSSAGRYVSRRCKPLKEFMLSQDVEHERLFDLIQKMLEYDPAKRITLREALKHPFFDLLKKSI

INS1 = assay: INS-1E mitochondrial potential rescue under cytokines – cell-based, JC-1 fluorescence ratio, dry powder, dose response (AID 488931); format: functional; details: Rattus norvegicus
[14] = molecular target: Aryl hydrocarbon receptor (Homo sapiens, UniProt P35869); details: Potency;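 note: confirmatory quantitative high-throughput screen measuring activation of the AhR signaling pathway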
Aryl hydrocarbon receptor, sequence (P35869 whole entry): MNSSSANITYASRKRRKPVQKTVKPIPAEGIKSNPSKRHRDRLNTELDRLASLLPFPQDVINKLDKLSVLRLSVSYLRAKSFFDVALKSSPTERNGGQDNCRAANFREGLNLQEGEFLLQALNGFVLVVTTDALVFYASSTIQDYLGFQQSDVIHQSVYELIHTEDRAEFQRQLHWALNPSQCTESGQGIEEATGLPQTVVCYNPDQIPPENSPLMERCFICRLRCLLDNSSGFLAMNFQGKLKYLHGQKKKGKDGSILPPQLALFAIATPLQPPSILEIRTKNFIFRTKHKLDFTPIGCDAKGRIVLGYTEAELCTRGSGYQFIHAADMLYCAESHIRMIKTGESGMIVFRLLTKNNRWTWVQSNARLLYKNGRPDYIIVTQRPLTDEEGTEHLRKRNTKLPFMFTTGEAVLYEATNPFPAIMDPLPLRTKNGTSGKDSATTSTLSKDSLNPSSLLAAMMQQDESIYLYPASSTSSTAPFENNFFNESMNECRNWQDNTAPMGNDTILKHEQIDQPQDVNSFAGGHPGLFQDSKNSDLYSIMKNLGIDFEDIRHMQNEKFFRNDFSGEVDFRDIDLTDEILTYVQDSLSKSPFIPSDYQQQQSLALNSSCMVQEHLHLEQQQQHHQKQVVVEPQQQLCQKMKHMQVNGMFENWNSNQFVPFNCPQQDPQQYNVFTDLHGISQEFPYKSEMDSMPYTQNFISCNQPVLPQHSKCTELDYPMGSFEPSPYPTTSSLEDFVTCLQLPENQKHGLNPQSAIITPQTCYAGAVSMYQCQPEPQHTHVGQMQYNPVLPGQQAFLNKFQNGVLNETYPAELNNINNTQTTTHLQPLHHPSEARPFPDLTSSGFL

Cytochrome P450 2C9 = Cytochrome P450 2C9 (Homo sapiens, UniProt P11712)
Cytochrome P450 2C9, sequence (P11712 whole entry): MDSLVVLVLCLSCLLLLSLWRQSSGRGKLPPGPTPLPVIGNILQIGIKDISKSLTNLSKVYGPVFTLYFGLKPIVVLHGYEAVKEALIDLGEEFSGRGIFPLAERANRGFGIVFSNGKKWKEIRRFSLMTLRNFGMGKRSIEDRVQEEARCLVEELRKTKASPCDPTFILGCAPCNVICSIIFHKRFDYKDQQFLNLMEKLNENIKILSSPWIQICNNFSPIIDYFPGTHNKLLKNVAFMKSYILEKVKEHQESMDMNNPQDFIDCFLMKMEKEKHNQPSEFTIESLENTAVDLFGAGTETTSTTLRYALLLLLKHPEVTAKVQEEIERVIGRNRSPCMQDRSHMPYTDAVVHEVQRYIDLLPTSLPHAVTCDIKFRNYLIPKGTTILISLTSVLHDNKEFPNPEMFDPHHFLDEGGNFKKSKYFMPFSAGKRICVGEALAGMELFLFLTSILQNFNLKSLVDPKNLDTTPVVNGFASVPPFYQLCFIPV

[15] = molecular target: Voltage-gated inwardly rectifying potassium channel KCNH2 (Homo sapiens, UniProt Q12809); details: Potency;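 note: confirmatory quantitative high-throughput screen measuring inhibition of hERG channel activity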
Voltage-gated inwardly rectifying potassium channel KCNH2, sequence (Q12809 whole entry): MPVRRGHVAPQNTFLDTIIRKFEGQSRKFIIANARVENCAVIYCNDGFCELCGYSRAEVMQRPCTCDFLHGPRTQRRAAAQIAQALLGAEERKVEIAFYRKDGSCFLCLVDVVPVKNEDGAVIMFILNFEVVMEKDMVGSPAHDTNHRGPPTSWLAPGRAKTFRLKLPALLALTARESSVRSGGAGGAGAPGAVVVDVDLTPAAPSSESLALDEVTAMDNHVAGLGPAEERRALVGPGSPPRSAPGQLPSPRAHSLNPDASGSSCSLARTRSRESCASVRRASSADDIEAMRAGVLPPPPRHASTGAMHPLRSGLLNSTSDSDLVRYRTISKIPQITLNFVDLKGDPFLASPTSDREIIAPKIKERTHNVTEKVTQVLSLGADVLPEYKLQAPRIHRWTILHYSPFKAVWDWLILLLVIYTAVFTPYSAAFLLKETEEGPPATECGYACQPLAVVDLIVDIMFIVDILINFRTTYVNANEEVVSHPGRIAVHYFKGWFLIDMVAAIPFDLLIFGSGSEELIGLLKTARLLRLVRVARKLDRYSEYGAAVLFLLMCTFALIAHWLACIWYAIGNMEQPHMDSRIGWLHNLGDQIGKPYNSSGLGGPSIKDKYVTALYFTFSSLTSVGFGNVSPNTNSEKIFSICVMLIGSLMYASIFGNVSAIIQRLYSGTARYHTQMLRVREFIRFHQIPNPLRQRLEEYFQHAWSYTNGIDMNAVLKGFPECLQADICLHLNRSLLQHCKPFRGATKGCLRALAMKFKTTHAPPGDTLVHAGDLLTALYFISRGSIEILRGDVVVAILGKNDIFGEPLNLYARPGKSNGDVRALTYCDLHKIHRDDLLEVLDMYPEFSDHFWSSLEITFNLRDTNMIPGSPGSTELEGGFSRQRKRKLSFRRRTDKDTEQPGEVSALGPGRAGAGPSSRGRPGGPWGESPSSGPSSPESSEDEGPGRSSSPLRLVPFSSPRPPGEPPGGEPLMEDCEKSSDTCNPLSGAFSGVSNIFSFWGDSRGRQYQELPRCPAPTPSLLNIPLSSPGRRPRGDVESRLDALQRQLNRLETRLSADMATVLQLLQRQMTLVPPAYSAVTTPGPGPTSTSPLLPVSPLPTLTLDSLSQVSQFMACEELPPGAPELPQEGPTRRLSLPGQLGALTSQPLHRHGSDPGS

Cytochrome P450 2C19 [16] = molecular target: T5, Cytochrome P450 2C19 (Homo sapiens, UniProt P33261); assay: Cytochrome panel assay with activity outcomes. Panel member name: p450-cyp2c19 Compounds with AC50 equal or less than 10 uM are considered active; format: functional; details: read-out: AC50
T5 sequence (P33261 whole entry): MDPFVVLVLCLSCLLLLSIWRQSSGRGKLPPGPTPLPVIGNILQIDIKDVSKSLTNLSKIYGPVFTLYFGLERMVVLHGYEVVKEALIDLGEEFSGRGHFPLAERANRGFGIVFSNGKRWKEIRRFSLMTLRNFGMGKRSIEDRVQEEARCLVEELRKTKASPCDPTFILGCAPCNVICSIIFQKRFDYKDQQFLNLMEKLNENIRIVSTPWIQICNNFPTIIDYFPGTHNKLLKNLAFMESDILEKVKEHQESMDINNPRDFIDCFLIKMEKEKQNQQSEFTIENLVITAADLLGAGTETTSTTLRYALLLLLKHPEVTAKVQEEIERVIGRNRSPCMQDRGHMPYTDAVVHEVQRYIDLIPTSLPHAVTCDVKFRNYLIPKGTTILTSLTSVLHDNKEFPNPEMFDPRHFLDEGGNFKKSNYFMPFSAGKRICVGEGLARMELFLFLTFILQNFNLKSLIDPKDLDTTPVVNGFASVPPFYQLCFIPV

Cytochrome P450 2C19 [17] = molecular target: T5, Cytochrome P450 2C19; assay: qHTS Assay for Inhibitors and Substrates of Cytochrome P450 2C19. [Related pubchem assays: 410 ]; format: ADME; details: read-out: Potency
[18] = molecular target: T6, Rac GTPase-activating protein 1 (Homo sapiens, UniProt Q9H0H5); assay: blockers of MgcRacGAP-driven Rac1 GTP hydrolysis – biochemical, ADP Hunter fluorescence, primary and confirmatory, confirmation (AID 624330); format: functional
T6 sequence (Q9H0H5 whole entry): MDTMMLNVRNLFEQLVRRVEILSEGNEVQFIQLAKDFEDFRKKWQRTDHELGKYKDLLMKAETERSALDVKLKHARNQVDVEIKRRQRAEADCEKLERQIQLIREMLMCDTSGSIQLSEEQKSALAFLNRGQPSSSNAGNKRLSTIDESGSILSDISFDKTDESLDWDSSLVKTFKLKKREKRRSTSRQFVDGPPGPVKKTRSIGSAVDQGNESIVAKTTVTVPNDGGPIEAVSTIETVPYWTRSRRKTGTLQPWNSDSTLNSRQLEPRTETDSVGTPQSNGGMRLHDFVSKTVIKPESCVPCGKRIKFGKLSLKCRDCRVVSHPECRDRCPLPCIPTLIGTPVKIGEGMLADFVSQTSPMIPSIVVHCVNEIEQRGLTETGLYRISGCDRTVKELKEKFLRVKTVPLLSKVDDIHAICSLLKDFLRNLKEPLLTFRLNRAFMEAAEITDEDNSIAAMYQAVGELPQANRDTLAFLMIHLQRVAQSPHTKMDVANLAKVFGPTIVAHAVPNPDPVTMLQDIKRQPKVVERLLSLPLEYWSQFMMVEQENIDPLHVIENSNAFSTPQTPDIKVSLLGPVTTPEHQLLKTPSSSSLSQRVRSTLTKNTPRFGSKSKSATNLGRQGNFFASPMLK

[19] = molecular target: Dual specificity tyrosine-phosphorylation-regulated kinase 1A (Rattus norvegicus, UniProt Q63470); format: biochemical, Homo sapiens
[20] = molecular target: T7, Carboxy-terminal domain RNA polymerase II polypeptide A small phosphatase 1 (Homo sapiens, UniProt Q9GZU7); assay: CTDSP1 inhibitors, concentration-response, biochemical, absorbance readout, ultra-high-throughput screen actives (AID 540297); format: functional
T7 sequence (Q9GZU7 whole entry): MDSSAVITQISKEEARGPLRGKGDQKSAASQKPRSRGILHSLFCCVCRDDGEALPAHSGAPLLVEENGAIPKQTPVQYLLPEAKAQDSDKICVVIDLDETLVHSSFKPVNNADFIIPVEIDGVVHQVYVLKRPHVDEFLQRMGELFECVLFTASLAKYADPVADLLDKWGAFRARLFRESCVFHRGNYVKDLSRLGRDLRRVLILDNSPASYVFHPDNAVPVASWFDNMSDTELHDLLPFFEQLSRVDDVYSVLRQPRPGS

## Nc1c(C(=O)c2cccs2)sc2nsc(SCCN3CCCCC3)c12
Beta Lactamase
  IC50: 9.89 µM (active)
CHO
  IC50: > 49.8 µM (inactive)
[1]
  EC50: > 99 µM (inactive)
[2]
  EC50: 12 µM (active)
[3]
  CC50: > 40 µM (active)

## CCCCCCCCCCCCN1[C@@H](CC(=O)O)c2cc(C(F)(F)F)ccc2S1(=O)=O
[4]
  AC50: 20.3 µM (active)
Escherichia coli
  AC50: 8.9 µM (active)
[5]
  EC50: 2.22 µM (active)
[6]
  IC50: 5.7 µM (active)
Streptococcus
  EC50: 10.2 µM (active)
Streptokinase A
  EC50: 2.28 µM (active)

## Cc1cccc(NC(=O)c2cc(S(=O)(=O)N3CCCCC3)c[nH]2)c1C
CAAX prenyl protease 2
  AC50: 0.197 µM (active)

## COc1ccc2nc(NC(=O)CCNC(=O)c3ccccc3Cl)sc2c1
[7]
  AC50: 8.01 µM (active)
[8]
  AC50: 1.53 µM (active)

## CCc1ccc(N2C(=O)c3sc4nnc(-c5ccccc5)c(=O)n4c3C2=O)cc1
Vero
  CC50: > 40 µM (active)
Genome polyprotein
  IC50: 48.5 µM (active)

## O=C(Nc1ccc(OC(=O)N2CCCCC2)cc1)N1CCOCC1
[9]
  AC50: 27.4 µM (active)
A-375 [10]
  AC50: > 35 µM (active)
A-375 [11]
  AC50: > 35 µM (active)

## CC(C)CN(C(=O)COC(=O)c1cc2ccccc2cc1O)c1c(N)n(Cc2ccccc2)c(=O)[nH]c1=O
DNA topoisomerase
  AC50: 6.2 µM (active)

## O=C(CCCCCn1c(=O)[nH]c2ccsc2c1=O)NCc1ccc(F)cc1
[12]
  EC50: 0.0776 µM (active)

## c1cncc(CNc2ccnc(-c3ccc4cn[nH]c4c3)n2)c1
[13]
  AC50: 2.01 µM (active)

## COc1ccc(S(=O)(=O)Nc2cccc3c2O[C@@H](CN(C)S(=O)(=O)c2ccc(OC)cc2)[C@H](C)CN([C@@H](C)CO)C3=O)cc1
INS1
  AC50: 73.4 µM (active)

## O=c1c(O)c(-c2ccc(O)cc2)oc2cc(O)cc(O)c12 [KAEMPFEROL]
[14]
  AC50: 44.7 µM (inconclusive) and 56.2 µM (inconclusive)
Cytochrome P450 2C9
  AC50: 0.00126 µM (inconclusive)
[15]
  AC50: 0.0022 µM (inconclusive)
Cytochrome P450 2C19 [16]
  AC50: 6.31 µM (inconclusive)
Cytochrome P450 2C19 [17]
  AC50: 10 µM (inconclusive)
[18]
  IC50: 44.5 µM (active)
[19]
  AC50: 1.26 µM (active)
[20]
  IC50: 9.93 µM (active)
